Assay results reported in publication PMC6268315, “Investigating the Spectrum of Biological Activity of Substituted Quinoline-2-Carboxamides and Their Isosteres ^†” (Molecules, 2012).
Converted amounts (≈) assume the structure as drawn. Like-named read-outs stand apart in the source and are kept apart here.

Key:
[1] = test system: photosynthetic electron transport (PET) in spinach chloroplasts; test: Inhibition of photosynthetic electron transport (PET) in spinach chloroplasts; type: biochemical, Spinacia oleracea L.; conditions: photoreduction of DCPIP, pH 7.2
Description: Chloroplasts were prepared from spinach (Spinacia oleracea L.) according to Masarovicova and Kralova. The inhibition of photosynthetic electron transport (PET) in spinach chloroplasts was determined spectrophotometrically (Genesys 6, Thermo Scientific, USA), using an artificial electron acceptor 2,6-dichlorophenol-indophenol (DCIPP) according to Kralova et al., and the rate of photosynthetic electron transport was monitored as a photoreduction of DCPIP. The measurements were carried out in phosphate buffer (0.02 mol/L, pH 7.2) containing sucrose (0.4 mol/L), MgCl2 (0.005 mol/L) and NaCl (0.015 mol/L). The chlorophyll content was 30 mg/L in these experiments and the samples were irradiated (~100 W/m^2 with 10 cm distance) with a halogen lamp (250 W) using a 4 cm water filter to prevent warming of the samples (suspension temperature 22 °C). The studied compounds were dissolved in DMSO due to their limited water solubility. […] The inhibitory efficiency of the studied compounds was expressed by IC50 values, i.e., by molar concentration of the compounds causing 50% decrease in the oxygen evolution rate relative to the untreated control.

[2] = test system: M. tuberculosis and other atypical mycobacterial strains; test: In vitro antimycobacterial screening, results in words; type: cell-based, Mycobacterium sp.; conditions: low solubility, precipitation in test media
[3] = test system: M. avium complex CIT19/06; test: In vitro antimycobacterial evaluation (alamarBlue); type: cell-based; conditions: Mycobacterium avium, 120 h, read-out: MIC/IC90 M. avium complex
[4] = test system: M. avium paratuberculosis ATCC19698; test: In vitro antimycobacterial evaluation (alamarBlue); type: cell-based; conditions: Mycobacterium avium, 264 h, read-out: MIC/IC90 M.avium paratuberculosis
M. kansasii CIT11/06 = test: In vitro antimycobacterial evaluation (alamarBlue); type: cell-based; conditions: Mycobacterium kansasii, read-out: MIC/IC90 M. kansasii
[5] = test system: human monocytic leukemia THP-1 cells; conditions: for lethal effect on THP-1 cells at the highest dose achieved in the medium: 100 µmol/L; for LD50: human, 24 h
[6] = test system: human monocytic leukemia THP-1 cells; conditions: assessed in this line formerly; cited from earlier work

Row | SMILES | IC50 [1] [µM] | melting point [°C] | MIC [3] [µM] | MIC ([4]; ATCC19698, 11 days) [µM] | MIC (M. kansasii CIT11/06; 120 h, CIT11/06, 5 days) [µM] | MIC ([3]; CIT19/06, 5 days) [µM] | other results
1 | O=C(NC1CCCCCCC1)c1ccc2ccccc2n1 [Compound 8, N-Cyclooctylquinoline-2-carboxamide] | 415 | 72 to 73 | – | – | – | – | antimycobacterial activity [2]: no activity
2 | Cc1cccc(NC(=O)c2ccc3ccccc3n2)c1 [Compound 14b, N-(3-Methylphenyl)quinoline-2-carboxamide] | 101 | 82 to 83 | 469 (≈ 123 µg/mL) | 939 (≈ 246 µg/mL) | – | – | MIC (M. kansasii CIT11/06; CIT11/06, 120 h): 469 µM (≈ 123 µg/mL)
3 | O=C(Nc1ccccc1)c1ccc2ccccc2n1 [Compound 9, N-Phenylquinoline-2-carboxamide] | 85.1 | – | – | – | – | – | antimycobacterial activity [2]: non-active
4 | O=C(c1ccc2ccccc2n1)N1CCCC1 [Compound 3, 2-(Pyrrolidin-1-ylcarbonyl)quinoline] | 1600 | – | 552 (≈ 125 µg/mL) | 111 (≈ 25.1 µg/mL) | 111 (≈ 25.1 µg/mL) | – | lethal effect on THP-1 cells at the highest dose achieved in the medium [5]: did not lead to the 100% lethal effect; LD50 [5]: >100 µmol/L
5 | O=C(NCCc1ccccc1)c1ccc2ccccc2n1 [Compound 11, N-(2-Phenylethyl)quinoline-2-carboxamide] | – | – | – | 905 (≈ 250 µg/mL) | 452 (≈ 125 µg/mL) | 452 (≈ 125 µg/mL) | lethal effect on THP-1 cells at the highest dose achieved in the medium [5]: did not lead to the 100% lethal effect; LD50 [5]: >100 µmol/L
6 | NNC(=O)c1ccncc1 [INH, isoniazid, reference compound] | – | – | – | – | < 72.9 | < 72.9 | MIC [4]: > 729 µM
7 | O=C(NC1CCCCCC1)c1ccc2ccccc2n1 [Compound 7, N-Cycloheptylquinoline-2-carboxamide] | – | – | – | 223 (≈ 59.8 µg/mL) | 466 (≈ 125 µg/mL) | 466 (≈ 125 µg/mL) | LD50 [5]: 62 ± 4.5 µmol/L
8 | CC[C@@]1(O)C(=O)OCc2c1cc1n(c2=O)Cc2cc3ccccc3nc2-1 [camptothecin] | – | – | – | – | – | – | LD50 [6]: 0.16 ± 0.07 µmol/L
9 | CCCCCCCCCCCCNC(=O)c1ccc2ccccc2n1 [Compound 2, N-Dodecylquinoline-2-carboxamide] | 573 | – | 367 (≈ 125 µg/mL) | 734 (≈ 250 µg/mL) | 734 (≈ 250 µg/mL) | – | –
10 | CC(C)NC(=O)c1ccc2ccccc2n1 [Compound 1, N-Isopropylquinoline-2-carboxamide] | – | 75 to 76 | – | 1170 (≈ 250 µg/mL) | 1170 (≈ 250 µg/mL) | 583 (≈ 125 µg/mL) | –
11 | O=C(NC1CCCC1)c1ccc2ccccc2n1 [Compound 5, N-Cyclopentylquinoline-2-carboxamide] | 762 | 63 to 64 | 491 (≈ 118 µg/mL) | – | – | – | MIC [4]: 491 µM (≈ 118 µg/mL); MIC (M. kansasii CIT11/06; CIT11/06, 120 h): 491 µM (≈ 118 µg/mL)
12 | COc1ccccc1NC(=O)c1ccc2ccccc2c1 [Compound 32a, N-(2-Methoxyphenyl)-2-naphthamide] | 763 | 82 | – | 216 (≈ 59.9 µg/mL) | 451 (≈ 125 µg/mL) | 451 (≈ 125 µg/mL) | –
13 | O=C(c1ccc2ccccc2c1)N1CCCC1 [Compound 22, 1-(2-Naphthoyl)pyrrolidine] | – | – | 554 (≈ 125 µg/mL) | 111 (≈ 25 µg/mL) | 111 (≈ 25 µg/mL) | – | lethal effect on THP-1 cells at the highest dose achieved in the medium [5]: did not lead to the 100% lethal effect; LD50 [5]: >100 µmol/L
14 | O=C(Nc1cccc(Cl)c1)c1ccc2ccccc2n1 [Compound 16b, N-(3-Chlorophenyl)quinoline-2-carboxamide] | 91.9 | 127 to 128 | – | – | – | – | –
15 | O=C(NC1CCCCC1)c1ccc2ccccc2n1 [Compound 6, N-Cyclohexylquinoline-2-carboxamide] | 1040 | 98 to 99 | – | 520 (≈ 132 µg/mL) | 520 (≈ 132 µg/mL) | 520 (≈ 132 µg/mL) | –
16 | NC(=O)c1cnccn1 [PZA, pyrazinamide, reference compound] | – | – | > 812 | – | – | – | MIC [4]: > 812 µM; MIC (M. kansasii CIT11/06; CIT11/06, 120 h): > 812 µM
